What all share (format): cell-based
One data set deals with hROMK (human Kir1.1) (Homo sapiens (Human), UniProt P48048). Briefly: Thallium Flux Assay. The settings on record: CHO T-Rex hROMK stable cell line, 10-point concentration response; read-out: hROMK Th+ Flux IC50. The gist of the method:
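CHO T-Rex cells, doxycycline-induced (0.5 μg/ml) one day before, FluxOR dye-loaded; compounds 30 min, then Tl+ stimulus (final 3 mM Tl2SO4, 0.15 mM K2SO4) with ouabain in chloride-free buffer. Fluorescence 488/525 nm for 90 s; IC50 from 10-point curve; DMSO 0.5 or 1%.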

For another data set, the target named is hROMK (Homo sapiens (Human), UniProt P48048). Briefly: ROMK Manual Patch Clamp Assay. The settings on record: whole-cell manual patch clamp, hROMK expressing cells; read-out: hROMK EP IC50. The procedure:
ROMK Manual Patch Clamp Assay
Cell culture conditions: Cells were maintained in conditions similar to those for Thallium flux assay. hROMK channel expression was induced by adding 0.6 μg/ml of Doxycycline 16-24 hrs prior to the experiments. On the day of experiment, the cells were dissociated using Versene, resuspended in growth media and plated onto coverslips 15 minutes prior to use.
Electrophysiology: The coverslip plated with cells was placed in the experiment chamber perfused with bath solution composed of (in mM): 135 NaCl, 5 KCl, 2 CaCl2, 1 MgCl2, 10 HEPES, 5 Glucose (pH 7.4). Patch pipettes with resistance between 2-5 Megaohms, when filled with a solution containing (in mM): 135 KCl, 1 EGTA, 1 MgCl2, 10 HEPES, 2 Na2ATP (pH 7.3), were used to form gigaseals. The cells were voltage clamped at −75 mV in whole-cell configuration using an Axopatch 200b or Multiclamp 700b (Molecular Devices) amplifier controlled by pClamp Software (Molecular Devices). The current was recorded by applying a voltage step to −120 mV every 10 seconds. For each compound, 4-6 concentrations were applied for 3-8 minutes in a successive manner starting with the lowest concentration. At the end of the experiment, the cells were perfused with bath solution containing 2 mM Ba^2+ to isolate the contribution of hROMK current.
Data analysis: Raw current values (5 traces each for control, different compound concentration and Ba^2+ treatment groups) were exported from Clampfit into Microsoft Excel where the current remaining after application of Ba^2+ was subtracted from raw current to obtain hROMK specific current. These hROMK current values (average of 5 traces for each group) were then imported into a custom made template to generate a concentration response curve, which was subsequently fitted with a four parameter equation to calculate the IC50 value of the test compound.
The data in Table 4 is reported with two significant figures.

For another data set, the target named is hERG (Homo sapiens (Human), UniProt Q12809). Kind of data set: hERG Manual Patch Clamp Assay. The settings on record: for inhibition at 1 µM / inhibition at 3 µM / inhibition at 10 µM: human, HEK 293 cells stably expressing hERG channels; for inhibition at 1 µM: pH 7.4, 1 μM, read-out: hERG EP IC50 (% Inhibition at 1 μM); for inhibition at 3 µM: pH 7.4, 3 uM, read-out: hERG EP % Inhibition at 3 uM; for inhibition at 10 µM: pH 7.4, 10 uM, read-out: hERG EP % Inhibition at 10 uM. The procedure:
hERG Manual Patch Clamp Assay
hERG electrophysiology assay: The experimental compounds were assessed for hERG activity on HEK 293 cells stably expressing hERG channels using patch clamp technique. Coverslips plated with hERG expressing cells were placed in the experimental chamber and were perfused with a solution composed of (in mM): 140 NaCl, 4 KCl, 1.8 CaCl2, 1 MgCl2, 10 Glucose, 10 HEPES (pH 7.4, NaOH) at room temperature. Borosilicate patch pipettes had tip resistances of 2-4 Mohms when filled with an internal solution containing: 130 KCl, 1 MgCl2, 1 CaCl2, 10 EGTA, 10 HEPES, 5 ATP-K2 (pH 7.2, KOH). The cells were clamped at −80 mV in whole cell configuration using an Axopatch 200B (Axon instruments, Union City, Calif.) patch clamp amplifier controlled by pClamp (Axon instruments) software. Upon formation of a gigaseal, the following voltage protocol was repeatedly (0.05 Hz) applied to record tail currents: depolarization step from −80 mV to +20 mV for 2 seconds followed by a hyperpolarization step to −65 mV (3 seconds) to elicit tail currents. Compounds were applied after stabilization of tail current. First, tail currents were recorded in presence of extracellular solution alone (control) and subsequently, in extracellular solution containing increasing compound concentrations. Each compound concentration was applied for 2-5 minutes. The percentage inhibition at each concentration was calculated as reduction in peak tail current with respect to the peak tail current recorded in the presence of control solution. Data analysis was performed in a custom made template. The percent inhibitions at different concentrations were plotted to obtain a concentration response curve, which was subsequently fitted with a four parameter equation to calculate hERG IC50 value.
A lower hERG % Inhibition value indicates less inhibition of the hERG current

The values below come from patent US10851108B2, “Substituted bicyclic heterocyclic compounds” (BRISTOL-MYERS SQUIBB COMPANY, priority 2016, dated 2020).

Chain of hROMK (human Kir1.1) (P48048 whole entry): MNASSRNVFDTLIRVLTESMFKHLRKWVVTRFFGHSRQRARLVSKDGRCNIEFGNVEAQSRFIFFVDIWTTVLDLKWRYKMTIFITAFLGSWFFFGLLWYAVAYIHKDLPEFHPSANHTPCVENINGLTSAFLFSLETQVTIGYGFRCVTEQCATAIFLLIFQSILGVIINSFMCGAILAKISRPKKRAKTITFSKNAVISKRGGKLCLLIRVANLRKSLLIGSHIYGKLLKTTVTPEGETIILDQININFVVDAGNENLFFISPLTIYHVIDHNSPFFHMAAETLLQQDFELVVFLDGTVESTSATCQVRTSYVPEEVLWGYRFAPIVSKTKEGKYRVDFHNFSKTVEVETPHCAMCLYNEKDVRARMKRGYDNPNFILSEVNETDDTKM
Chain of hERG (Q12809 whole entry): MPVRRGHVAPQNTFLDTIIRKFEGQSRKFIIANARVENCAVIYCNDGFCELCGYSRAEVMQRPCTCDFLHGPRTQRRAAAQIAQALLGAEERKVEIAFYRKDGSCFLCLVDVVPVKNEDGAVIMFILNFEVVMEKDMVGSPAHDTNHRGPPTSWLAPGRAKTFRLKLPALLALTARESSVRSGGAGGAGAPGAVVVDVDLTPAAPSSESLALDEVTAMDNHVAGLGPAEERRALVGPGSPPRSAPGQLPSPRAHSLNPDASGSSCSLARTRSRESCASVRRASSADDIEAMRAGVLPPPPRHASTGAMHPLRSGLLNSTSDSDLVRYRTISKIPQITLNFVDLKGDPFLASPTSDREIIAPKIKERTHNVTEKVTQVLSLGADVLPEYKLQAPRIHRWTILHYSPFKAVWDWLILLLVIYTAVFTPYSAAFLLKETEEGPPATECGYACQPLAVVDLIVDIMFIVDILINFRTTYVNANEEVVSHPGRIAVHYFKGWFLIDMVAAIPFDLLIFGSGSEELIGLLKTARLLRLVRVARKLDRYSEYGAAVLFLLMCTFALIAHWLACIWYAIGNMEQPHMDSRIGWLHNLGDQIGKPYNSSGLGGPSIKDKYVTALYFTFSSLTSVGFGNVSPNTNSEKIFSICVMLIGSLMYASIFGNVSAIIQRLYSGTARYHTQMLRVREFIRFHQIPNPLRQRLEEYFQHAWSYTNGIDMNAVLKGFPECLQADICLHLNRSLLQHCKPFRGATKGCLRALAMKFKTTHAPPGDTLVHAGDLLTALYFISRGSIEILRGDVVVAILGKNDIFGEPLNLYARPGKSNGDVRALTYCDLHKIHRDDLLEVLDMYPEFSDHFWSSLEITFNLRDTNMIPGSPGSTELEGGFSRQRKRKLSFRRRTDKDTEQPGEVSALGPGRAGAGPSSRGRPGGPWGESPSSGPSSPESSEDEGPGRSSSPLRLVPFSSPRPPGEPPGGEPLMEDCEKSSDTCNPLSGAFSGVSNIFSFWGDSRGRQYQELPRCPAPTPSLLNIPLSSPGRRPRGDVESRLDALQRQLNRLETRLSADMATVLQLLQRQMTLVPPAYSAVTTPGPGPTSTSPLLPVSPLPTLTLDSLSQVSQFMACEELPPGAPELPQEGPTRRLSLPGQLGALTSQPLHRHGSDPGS
Chain of hROMK (P48048 whole entry): as the sequence (P48048 whole entry) above

As to `Cc1c(C(O)CN2CCc3nc(-n4cc(C#N)cn4)ncc3C2)ccc2c1COC2=O` (single isomer, unassigned) [Example 56-I, 1-(6-(2-hydroxy-2-(4-methyl-1-oxo-1,3-dihydroisobenzofuran-5-yl)ethyl)-5,6,7,8-tetrahydropyrido[4,3-d]pyrimidin-2-yl)-1H-pyrazole-4-carbonitrile], the IC50 at hROMK (human Kir1.1) was found to be 44 nM. Also, on hROMK, the IC50 is 12 nM. On hERG, the inhibition at 1 µM came to 35%, the inhibition at 3 µM came to 65% and the inhibition at 10 µM was 82%.

Take `Cc1c(C(O)CN2CCc3nc(-n4ncc5c(C#N)cncc54)ncc3C2)ccc2c1COC2=O` (single isomer, unassigned) [Example 43-I, 1-(6-(2-hydroxy-2-(4-methyl-1-oxo-1,3-dihydroisobenzofuran-5-yl)ethyl)-5,6,7,8-tetrahydropyrido[4,3-d]pyrimidin-2-yl)-1H-pyrazolo[3,4-c]pyridine-4-carbonitrile]: the IC50 on hROMK (human Kir1.1) was determined as 180 nM. Also, the inhibition at 1 µM on hERG is 16%.

In the case of `Cc1c(C(O)CN2CCc3nc(-n4ccc5ncccc54)ncc3C2)ccc2c1COC2=O` (single isomer, unassigned) [Example 36-I, 5-(2-(2-(1H-pyrrolo[3,2-b]pyridin-1-yl)-7,8-dihydropyrido[4,3-d]pyrimidin-6(5H)-yl)-1-hydroxyethyl)-4-methyl-isobenzofuran-1(3H)-one], the IC50 on hROMK (human Kir1.1) was determined as 180 nM. Moreover, the inhibition at 1 µM on hERG stood at 12%.

As to `Cc1c(C(O)CN2CCc3nc(-n4ccc5c(C#N)cccc54)ncc3C2)ccc2c1COC2=O` (single isomer, unassigned) [Example 1-I, 1-(6-(2-hydroxy-2-(4-methyl-1-oxo-1,3-dihydroisobenzofuran-5-yl)ethyl)-5,6,7,8-tetrahydropyrido[4,3-d]pyrimidin-2-yl)-1H-indole-4-carbonitrile], the IC50 at hROMK (human Kir1.1) came to 54 nM. Also, the inhibition at 1 µM at hERG amounted to 78%.

As to `Cc1c(C(O)CN2CCc3nc(Nc4cccnc4)ncc3C2)ccc2c1COC2=O` (single isomer, unassigned) [Example 54-I, 5-(1-hydroxy-2-(2-(pyridin-3-ylamino)-7,8-dihydropyrido[4,3-d]pyrimidin-6(5H)-yl)ethyl)-4-methylisobenzofuran-1(3H)-one], on hROMK (human Kir1.1), the IC50 amounted to 217 nM. For the same compound, at hERG, the inhibition at 1 µM came to 32%.

For the compound `Cc1c(C(O)CN2CCc3cc(Nc4ccc(C#N)c(F)c4)ccc3C2)ccc2c1COC2=O` (single isomer, unassigned) [Example 32-II, 2-fluoro-4-((2-(2-hydroxy-2-(4-methyl-1-oxo-1,3-dihydroisobenzofuran-5-yl)ethyl)-1,2,3,4-tetrahydroisoquinolin-6-yl)amino) benzonitrile], the IC50 at hROMK (human Kir1.1) came out at 83 nM. In addition, the “hERG EP IC50 (% Inhibition at 1 μM)” value at hERG (1 μM, HEK 293 cells stably expressing hERG) worked out at 97% @1 μM.

As to `Cc1c(C(O)CN2CCc3nc(-n4ccnc4)ncc3C2)ccc2c1COC2=O` (single isomer, unassigned) [Example 66-I, 5-(2-(2-(1H-imidazol-1-yl)-7,8-dihydro-pyrido[4,3-d]pyrimidin-6(5H)-yl)-1-hydroxyethyl)-4-methylisobenzofuran-1(3H)-one], the IC50 at hROMK (human Kir1.1) is 362 nM. For the same compound, on hERG, the inhibition at 1 µM came to 6%, the inhibition at 3 µM turned out to be 14% and the inhibition at 10 µM came to 30%.

As for `Cc1c(C(O)CN2CCc3nc(-n4cc(C#N)c5ccccc54)ncc3C2)ccc2c1COC2=O` (single isomer, unassigned) [Example 8-I, 1-(6-(2-hydroxy-2-(4-methyl-1-oxo-1,3-dihydroisobenzofuran-5-yl)ethyl)-5,6,7,8-tetrahydropyrido[4,3-d]pyrimidin-2-yl)-1H-indole-3-carbonitrile], the IC50 on hROMK (human Kir1.1) came out at 28 nM. In addition, the inhibition at 1 µM at hERG is 98%.

As for `Cc1c(C(O)CN2CCc3nc(-n4nc(C#N)c5ccccc54)ncc3C2)ccc2c1COC2=O` (single isomer, unassigned) [Example 60-I, 1-(6-(2-hydroxy-2-(4-methyl-1-oxo-1,3-dihydroisobenzofuran-5-yl)ethyl)-5,6,7,8-tetrahydropyrido[4,3-d]pyrimidin-2-yl)-1H-indazole-3-carbonitrile], the IC50 on hROMK (human Kir1.1) was 30 nM. For the same compound, the inhibition at 1 µM at hERG was 92%.

For `Cc1c(C(O)CN2CCc3nc(N4CCc5c(C#N)cccc54)ncc3C2)ccc2c1COC2=O` (single isomer, unassigned) [Example 65-I, 1-(6-(2-hydroxy-2-(4-methyl-1-oxo-1,3-dihydroisobenzofuran-5-yl)ethyl)-5,6,7,8-tetrahydropyrido[4,3-d]pyrimidin-2-yl)indoline-4-carbonitrile], the IC50 at hROMK (human Kir1.1) was 31 nM. Also, at hERG, the inhibition at 1 µM came out at 56%.

As to `Cc1c(C(O)CN2CCc3nc(Nc4ccc(C#N)c(F)c4)ncc3C2)ccc2c1COC2=O` (single isomer, unassigned) [Example 28-I, 2-fluoro-4-((6-(2-hydroxy-2-(4-methyl-1-oxo-1,3-dihydroisobenzofuran-5-yl)ethyl)-5,6,7,8-tetrahydropyrido [4,3-d]pyrimidin-2-yl)amino)benzonitrile], the IC50 on hROMK (human Kir1.1) turned out to be 120 nM. For the same compound, on hERG, the inhibition at 1 µM came to 91%.

In the case of `Cc1c(C(O)CN2CCc3nc(-n4ccc5cc(C#N)ccc54)ncc3C2)ccc2c1COC2=O` (single isomer, unassigned) [Example 16-I, 1-(6-(2-hydroxy-2-(4-methyl-1-oxo-1,3-dihydroisobenzofuran-5-yl)ethyl)-5,6,7,8-tetrahydropyrido[4,3-d]pyrimidin-2-yl)-1H-indole-5-carbonitrile], the IC50 at hROMK (human Kir1.1) was found to be 380 nM. The inhibition at 1 µM on hERG was 25%.

As for `Cc1c(C(O)CN2CCc3nc(-n4ccnc4C)ncc3C2)ccc2c1COC2=O` (single isomer, unassigned) [Example 59-I, 5-(1-hydroxy-2-(2-(2-methyl-1H-imidazol-1-yl)-7,8-dihydropyrido[4,3-d]pyrimidin-6(5H)-yl)ethyl)-4-methyl isobenzofuran-1(3H)-one], at hROMK (human Kir1.1), the IC50 turned out to be 224 nM. On hERG, the inhibition at 1 µM was found to be 13%, the inhibition at 3 µM was found to be 27% and the inhibition at 10 µM amounted to 51%.

With `COc1cc(Nc2ncc3c(n2)CCN(CC(O)c2ccc4c(c2C)COC4=O)C3)ncc1C#N` (single isomer, unassigned) [Example 64-I, 6-((6-(2-hydroxy-2-(4-methyl-1-oxo-1,3-dihydroisobenzofuran-5-yl)ethyl)-5,6,7,8-tetrahydropyrido[4,3-d]pyrimidin-2-yl)amino)-4-methoxynicotinonitrile], at hROMK (human Kir1.1), the IC50 turned out to be 381 nM.

As to `Cc1c(C(O)CN2CCc3cc(Nc4ccc(C#N)c(F)c4)ccc3C2)ccc2c1COC2=O` (single isomer, unassigned) [Example 32-I, 2-fluoro-4-((2-(2-hydroxy-2-(4-methyl-1-oxo-1,3-dihydroisobenzofuran-5-yl)ethyl)-1,2,3,4-tetrahydroisoquinolin-6-yl)amino) benzonitrile], the IC50 at hROMK (human Kir1.1) was 50 nM. Also, the inhibition at 1 µM at hERG came to 100%.
